As usually defined, the Tmax is the time from dosing to the highest level. A word on the Cmax: it is the highest concentration seen after dosing.

Data on four compounds can be found in patent publication US8629144B2, “Polymorphic and hydrate forms, salts and process for preparing 6-{difluoro[6-(1-methyl-1H-pyrazol-4-yl)[1,2,4]triazolo[4,3-b]pyridazin-3-yl]methyl}quinoline” (Janssen Pharmaceutica NV, priority 2007, dated 2014).

SMILES strings stand for the structures. Converted amounts (≈) assume the structure as drawn. Where two headings read alike, the source gives them in different places.

The nature of series [1]: Water adsorption (hygroscopicity) of salts of compound (I). The class given is physicochemical. Particulars: for Water adsorbed: dried 1 h at 25° C. under dry nitrogen flow. As to the method: Free base of compound (I) (3 g; 7.95 mmol) was dissolved in absolute ethanol (40 mL) and heated to 78° C. An acid (HCl 6M in 2-propanol, 2.0 ml (12 mmol); HBr 48% in water, 0.98 mL (8.75 mmol); methane sulphonic acid, 917 mg (9.54 mmol); ethane sulphonic acid, 1.05 g (9.54 mmol) or p-toluene sulphonic acid monohydrate (1.66 g (8.75 mmol)) was added to the hot reaction mixture. The reaction mixture was allowed to cool to room temperature. The resulting precipitate was filtered off, washed with ethanol and dried under vacuum at 60° C.
The obtained solids were analysed by acid titration, Karl-Fisher titration and HPLC. A physical characterisation was performed (DSC, TGA, XRD and IR, DVS).

Series [2] is described as follows: Water solubility of salts of compound (I). The class given is physicochemical. Particulars: 24 hours at 20° C.; for Measured pH: saturated solution in water; for Solubility: water, UV spectrometry. As to the method:
An excess of different salts of compound (I) was agitated with water during 24 hours at 20° C. Following filtration, the concentration of compound (I) in the solution was determined by UV spectrometry.

For series [3] the following is noted: rat, in vivo, po.
Description: (§1) Five male SD rats (225±11 g) were used per salt form. From each rat a complete plasma concentration time profile was obtained. Tap water and food were available ad libitum. The test involved salts of compound (I) with HBr, HCl, methanesulphonic acid (mesylate), ethanesulphonic acid (esylate) or p-toluenesulphonic acid (tosylate). The individual salts were dispersed in a 0.5% methocel suspension to a final concentration of 1 mg base eq./ml. The formulations were stored at room temperature.
(§2) Administration was oral by gastric intubation: 10 ml/kg to obtain a dose of 10 mg base eq./kg.
(§3) Blood samples were collected 30 min, 1, 2, 4, 7 and 24 h after dose administration.
(§4) Blood was collected by multiple sampling from a tail vein into Multivette® 600 K3E tubes (Sarstedt). Samples were placed immediately on melting ice and plasma was obtained following centrifugation at 4° C. for 10 minutes at approximately 1900×g. All samples were shielded from daylight and stored at ≦−18° C. prior to analysis.
(§5) A limited pharmacokinetic analysis was performed using WinNonlin™ Professional (Version 5.1). A non-compartmental analysis using the lin/log trapezoidal rule with lin/log interpolation was used for all data.
The nature of series [4]: Aqueous solubility of Forms I, III and hydrate at different pH. The series is classed as physicochemical. The protocol:
Solubility of polymorph Forms I and III and the hydrate form of the compound of formula (I) was tested in aqueous conditions at different pH values.

Series [5] is described as follows: Thermal conversions in DSC oven (XRPD). The series is classed as physicochemical. The protocol:
Form III or hydrate form were thermally treated in a DSC oven (heating rate 10° C./min) up to selected temperatures (isotherm for 1 min) using an open sample pan. The selected temperatures are for Form III: 110° C. and 170° C.; and for hydrate form: 70° C., 110° C. and 170° C. The polymorphic composition of the obtained fractions was measured by XRPD. Table 12 summarises XRPD patterns in DSC treated Form III. Table 13 summarises XRPD patterns in DSC treated hydrate

Series [6] is described as follows: Slurry conversions on Form III and Form III/hydrate (XRPD). More on the design: key: Form III; hydrate. The series is classed as physicochemical. The protocol: 20 mg Form III with 0.25 ml solvent (2-propanol; or 2-propanone/water (8/2, v/v); or methanol/water (8/2, v/v)) was deposited in a vial. For each solvent, 3 vials were prepared and stored each at different temperatures (4° C., RT, 40° C.) for two days. After storage, the slurry was spread on a paper filter, the solid fractions were collected and dried 2 hours at RT. In a further experiment, the Form III was seeded with the hydrate using methanol/water (8/2, v/v) as the solvent. The polymorphic composition was measured using XRPD.

Series [7] can be described thus: Absorption and plasma kinetics after oral administration of salts to rat. As to conditions: male SD rats, oral 10 mg base eq./kg.
Description: as §1, §2, §3, §4, §5

As for `CCS(=O)(=O)O.Cn1cc(-c2ccc3nnc(C(F)(F)c4ccc5ncccc5c4)n3n2)cn1` [esylate salt], the Hygroscopicity entry in series [1] is “hygroscopic”. The Water adsorbed entry in series [1] (at high relative humidity) was “up to 34%”. Also, in series [2], the “Measured pH” value is given as “pH = 2.1” and the Solubility turned out to be 0.025 g/100 ml H2O. For the same compound, in series [3], the Tmax came to 1.6 ± 0.5 h and the “t1/2 (4-24 h)” value amounted to 3.3 ± 0.4 h.
On to `Cn1cc(-c2ccc3nnc(C(F)(F)c4ccc5ncccc5c4)n3n2)cn1` [Form III, 6-{difluoro[6-(1-methyl-1H-pyrazol-4-yl)[1,2,4]triazolo[4,3-b]pyridazin-3-yl]methyl}quinoline], for which the Solubility worked out at 78 µg/mL (≈ 207 µM) in series [4] (0.01 HCl); 970 µg/mL (≈ 2570 µM) in series [4] (0.1 HCl); 130 µg/mL (≈ 345 µM) in series [4] (pH2); 3 µg/mL (≈ 7.95 µM) in series [4] (pH4); 1 µg/mL (≈ 2.65 µM) in series [4] (pH6); 1 µg/mL (≈ 2.65 µM) in series [4] (pH8). The compound also yielded a Solubility in series [4] (pH10) of 2 µg/mL (≈ 5.3 µM). The XRPD measured composition entry in series [5] (DSC treated Form III, up to 110° C.) is “Form III”; in series [5] (DSC treated Form III, up to 170° C.) it was “Form I”; in series [5] (starting Form III), “Form III”. The “Polymorphic composition (XRPD) after slurry” value in series [6] (2-propanol, 4° C., two days) was “III”; in series [6] (2-propanol, 40° C., two days), “III”; in series [6] (2-propanol, RT, two days), “III”; in series [6] (2-propanone/water (8/2, v/v), 4° C., two days), “hy”; in series [6] (2-propanone/water (8/2, v/v), 40° C., two days), “hy”; in series [6] (2-propanone/water (8/2, v/v), RT, two days), “hy”. Besides, the “Polymorphic composition (XRPD) after slurry” value in series [6] (methanol/water (8/2, v/v) containing hydrate seeds, 4° C.) is “III”; in series [6] (methanol/water (8/2, v/v) containing hydrate seeds, 40° C.), “III”; in series [6] (methanol/water (8/2, v/v) containing hydrate seeds, RT), “III”; in series [6] (methanol/water (8/2, v/v), 4° C., two days), “III”; in series [6] (methanol/water (8/2, v/v), 40° C., two days) it was “III”; in series [6] (methanol/water (8/2, v/v), RT, two days), “III”.
As to `CS(=O)(=O)O.Cn1cc(-c2ccc3nnc(C(F)(F)c4ccc5ncccc5c4)n3n2)cn1` [mesylate salt], the Hygroscopicity result in series [1] was “hygroscopic”. Besides, the Water adsorbed entry in series [1] (at high relative humidity) is on record as “up to 4.5%”. Moreover, in series [2], the “Measured pH” value is “pH = 1.9” and the Solubility is reported as 0.047 g/100 ml H2O. Moreover, in series [3], the Tmax is on record as 1.2 ± 0.4 h and the “t1/2 (4-24 h)” value stood at 3.7 ± 0.6 h.
Consider `Cc1ccc(S(=O)(=O)O)cc1.Cn1cc(-c2ccc3nnc(C(F)(F)c4ccc5ncccc5c4)n3n2)cn1` [tosylate salt], for which the Hygroscopicity result in series [1] is recorded as “non-hygroscopic”. Moreover, in series [1] (depending on the atmospheric humidity), the Water adsorbed entry is on record as “up to 0.2%”. The “Plasma concentration, Mean ± SD” value in series [7] (0.5 hours, 0.5% methocel suspension (LLOQ given in ng/ml)) is listed as 2193 ± 1031. The “Plasma concentration, Mean ± SD” value in series [7] (1 hour) is 2998 ± 1349. Besides, in series [7] (2 hours), the “Plasma concentration, Mean ± SD” value amounted to 3274 ± 995. In series [7] (4 hours), the “Plasma concentration, Mean ± SD” value is reported as 2512 ± 960. Also, the “Plasma concentration, Mean ± SD” value in series [7] (7 hours) stood at 1625 ± 537. Moreover, the “Plasma concentration, Mean ± SD” value in series [7] (24 hours) is 47.9 ± 24.0. Moreover, in series [7] (Mean ± SD), the AUC0-24 h was determined as 24307 ± 7457 ng·h/mL, the AUC0-inf worked out at 24558 ± 7503 ng·h/mL, the Cmax came out at 3380 ± 944 ng/mL and the time of peak concentration (Tmax) stood at 2.0 ± 1.2 h. In series [7] (Mean ± SD), the “t1/2 (4-24 h)” value was determined as 3.4 ± 0.6 h. Further, in series [2], the “Measured pH” value is given as “pH = 2.1” and the Solubility came out at 0.023 g/100 ml H2O.
